# In patent US20110010780A1, “KCNN3 AS DIAGNOSTIC AND THERAPEUTIC TARGET FOR NEURODEGENERATIVE DISEASES” (EVOTEC NeuroSciences GmbH, priority 2005, published 2011):
# Experiments:
# [1] = test system: SK-channels; details: all SK-channels, rather unspecifically; cited from earlier work
# [2] = target: T1, KCNN3 (Homo sapiens, UniProt Q9UGI6, DUP76-80); assay: Z′-value assessment of the cellular KCNN3 screening assay with fluoxetine; format: cell-based; details: CHO-KCNN3 cells, 100 μM fluoxetine, ionomycin 500 nM
# T1 construct: expressed in transfected cells
# Description: The difference of the fluorescence intensity before addition of ionomycin and after the 120 seconds incubation period was determined where the cells were incubated with fluoxetine. The influx of calcium mediated by ionomycin leads to an opening of the channels and a subsequent hyperpolarization of the resting membrane potential of the cells. […] The mean value of the difference of the fluorescence in presence of ionomycin and fluoxetine in the above experiment is 15912 rfu (standard deviation 3636 rfu) and the mean value of the fluorescence of cells in presence of ionomycin only is 124086 rfu (standard deviation 12615 rfu). The Z′-value is calculated to be 0.55. The Z′ in a second series of experiments was determined to be 0.59.
# In order to optimize the KCNN3 assay for screening purposes the Z′-value was assessed (FIG. 16). After 24 hours of incubation the medium was removed from a 384-well plate where CHO-KCNN3 cells were grown. 20 μl dye solution in assay buffer was pipetted onto the cells and afterwards another 20 μl assay buffer only or 20 μl assay buffer plus 100 μM fluoxetine was added. After 30 minutes of incubation at 37 ° C. the plate was transferred to the automated pipetting device/fluorescence reader (FlexStation, Molecular Devices) and 10 μl ionomycin was added at a final concentration of 500 nM. Fluorescence was then measured for 120 sec every 10 sec. […]
# [3] = test system: CHO wild type cells (CHO/−); assay: cellular membrane potential assay in CHO wild type cells (control cell line); format: cell-based
# Description: (§1) The minimum fluorescence values during the following 5 minutes measurement period were subtracted from the maximum signal recorded at the beginning of the experiment and plotted against the concentration of the substances.
# The assay makes use of membrane potential sensitive, fluorescent dyes and the activation of the calcium-sensitive KCNN3-potassium channel by the addition of ionomycin. Upon entry of calcium into the cells KCNN3 is activated and thus impacts on the resting membrane potential of the cells which is mirrored by the fluorescent dye. In more detail: CHO cells expressing KCNN3 are cultured on black 384-well plates with clear bottom at a density of 1.5.104 for 24 hours in a humidified incubator at 37° C. The cell culture medium is replaced with assay buffer (1 mM KCl, 2.3 mM CaCl2, 5 mM NaHCO3, 1 mM MgCl2, 154 mM NaCl, 5.5 mM d(+)-glucose, 5 mM HEPES, pH 7.4) containing 5 μM DiBAC4(3). After 30 min of cell loading with the dye at 37° C. fluorescence (excitation 488 nm, emission 538 nm) is read by using a fluorescence plate reader (Flex-station, Molecular Devices). Activation of KCNN3 is achieved by the addition of ionomycin at a 1μM final concentration (FIGS. 14 and 15). […] Fluorescence is monitored for a period of 5 min.
# [4] = target: T1, KCNN3; assay: cellular KCNN3 screening assay (membrane potential dye DiBAC4(3), ionomycin activation) in CHO/KCNN3 cells; format: cell-based; details: incubated 30 minutes before ionomycin (1 μM final), fluorescence over 5 minutes
# Description: Upon entry of calcium into the cells the potassium channel is activated and thus impacts on the resting membrane potential of the cells which is mirrored by the fluorescent dye. The minimum fluorescence values measured during the following 5 minutes period were subtracted from the maximum signal recorded at the beginning of the experiment and plotted against the concentration of the substances incubated with the cells. The values obtained in the absence and at the lowest concentrations are indicative of a fully active potassium channel which leads to a hyperpolarization of the membrane potential.
# as §1
# The assay makes use of membrane potential sensitive, fluorescent dyes and the activation of the calcium-sensitive KCNN3-potassium channel by the addition of ionomycin. Upon entry of calcium into the cells KCNN3 is activated and thus impacts on the resting membrane potential of the cells which is mirrored by the fluorescent dye. […] After 30 min of cell loading with the dye at 37° C. fluorescence (excitation 488 nm, emission 538 nm) is read by using a fluorescence plate reader (Flex-station, Molecular Devices). […] Fluorescence is monitored for a period of 5 min.
smiles,measurement,setting,value
c1cc2cc(c1)C[n+]1ccc(c3ccccc31)NCc1ccc(cc1)CNc1cc[n+](c3ccccc13)C2 [UCL-1684],"block of SK-channels, potency",[1],lesser potency compared to the toxins
CNCCC(Oc1ccc(C(F)(F)F)cc1)c1ccccc1 (stereo not shown) [fluoxetine],mean value of the difference of the fluorescence before addition of ionomycin and after 120 seconds,"[2]; 30 minutes, standard deviation 3636 rfu",15912 rfu
same,block of the KCNN3 ion channel,[2],the ion channel is blocked
CC[N+](CC)(CC)CCOc1cccc(OCC[N+](CC)(CC)CC)c1OCC[N+](CC)(CC)CC [gallamine],"block of SK-channels, potency",[1],lesser potency compared to the toxins
C[C@H](CCC(=O)O)C[C@H](C)C[C@H](C)C(=O)/C=C(\O)[C@H](C)C[C@H](C)C/C=C/[C@@H](C)[C@@H](O)[C@@H](C)[C@@H](O)C[C@@H]1CC[C@@](C)([C@H]2CC[C@@](C)([C@@H](C)O)O2)O1 [ionomycin],effect on fluorescence (membrane potential) in CHO wild type cells,[3],no effect
CN1CCN(CCCN2c3ccccc3Sc3ccc(C(F)(F)F)cc32)CC1 [trifluorperatine],IC50,[4],18 µM
COc1cc2c3cc1Oc1cc(ccc1O)C[C@@H]1c4c(cc(OC)c(O)c4Oc4ccc(cc4)C[C@@H]3N(C)CC2)CC[N+]1(C)C [tubocurarine],"block of SK-channels, potency",[1],lesser potency compared to the toxins
